Test results from patent US20090137580A1, “Fused Heterocyclic Derivatives and Use Thereof” (Takeda Pharmaceutical Company Limited, priority 2005, published 2009).

Assays:
Type in all cases: biochemical
[1] = biological target: T1, PDGFR Alpha Receptor Kinase (PDGFRalpha) (Homo sapiens, UniProt P16234); assay: Determination of PDGFR alpha receptor kinase (PDGFRalpha) inhibitory activity (alpha screen); conditions: PDGFRalpha intracellular domain protein, 25 μM ATP buffer; read-out: IC50 value (PDGFRalpha kinase inhibition)
T1 construct: PDGFRalpha intracellular domain protein (UPSTATE); purchased UPSTATE
T1 sequence (P16234 550-1089 limits assumed): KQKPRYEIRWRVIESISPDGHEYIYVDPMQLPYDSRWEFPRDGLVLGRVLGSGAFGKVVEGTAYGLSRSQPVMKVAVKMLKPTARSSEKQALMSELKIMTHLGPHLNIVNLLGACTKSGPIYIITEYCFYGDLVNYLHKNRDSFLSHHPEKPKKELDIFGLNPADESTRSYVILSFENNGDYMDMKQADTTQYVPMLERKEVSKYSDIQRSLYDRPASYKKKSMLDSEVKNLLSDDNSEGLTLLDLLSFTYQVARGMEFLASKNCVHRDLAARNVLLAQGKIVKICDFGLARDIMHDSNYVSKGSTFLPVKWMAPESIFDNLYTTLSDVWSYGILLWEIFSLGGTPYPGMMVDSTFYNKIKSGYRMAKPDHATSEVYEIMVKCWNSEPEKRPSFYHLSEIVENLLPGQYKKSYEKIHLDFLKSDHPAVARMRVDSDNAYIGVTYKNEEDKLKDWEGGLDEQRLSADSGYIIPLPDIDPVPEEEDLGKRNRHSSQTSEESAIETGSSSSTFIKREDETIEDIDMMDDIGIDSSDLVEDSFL
Method: The test compound dissolved in dimethyl sulfoxide (DMSO) was diluted with a buffer (50 mM Tris-HCl, pH 7.5, 5 mM MgCl2, 5 mM MnCl2, 2 mM dithiothreitol, 0.01% Tween-20).
Acceptor beads: PerkinElmer for alpha screen assay) was added to quench the reaction. The reaction solution was stood at 25° C. for 16 hr, and the count was measured using a plate reader·Fusion™ (manufactured by PerkinElmer). The kinase inhibitory rate (%) of the test compound was calculated by the following formula.
(§1) Inhibitory rate(%)=(1−(count of test compound−blank)÷(control−blank))×100
(§2) wherein the count of the solution reacted without addition of the compound is “control” and the count of the solution without addition of the compound and ATP is “blank”.

[2] = biological target: T2, PDGFRbeta Receptor Kinase (PDGFRbeta) (Homo sapiens, UniProt P09619); assay: Determination of PDGFRbeta receptor kinase (PDGFRbeta) inhibitory activity (alpha screen); conditions: PDGFRbeta intracellular domain protein, 25 μM ATP buffer; read-out: IC50 value (PDGFRbeta kinase inhibition)
T2 construct: PDGFRbeta intracellular domain protein (UPSTATE); purchased UPSTATE
T2 sequence (P09619 554-1106 limits assumed): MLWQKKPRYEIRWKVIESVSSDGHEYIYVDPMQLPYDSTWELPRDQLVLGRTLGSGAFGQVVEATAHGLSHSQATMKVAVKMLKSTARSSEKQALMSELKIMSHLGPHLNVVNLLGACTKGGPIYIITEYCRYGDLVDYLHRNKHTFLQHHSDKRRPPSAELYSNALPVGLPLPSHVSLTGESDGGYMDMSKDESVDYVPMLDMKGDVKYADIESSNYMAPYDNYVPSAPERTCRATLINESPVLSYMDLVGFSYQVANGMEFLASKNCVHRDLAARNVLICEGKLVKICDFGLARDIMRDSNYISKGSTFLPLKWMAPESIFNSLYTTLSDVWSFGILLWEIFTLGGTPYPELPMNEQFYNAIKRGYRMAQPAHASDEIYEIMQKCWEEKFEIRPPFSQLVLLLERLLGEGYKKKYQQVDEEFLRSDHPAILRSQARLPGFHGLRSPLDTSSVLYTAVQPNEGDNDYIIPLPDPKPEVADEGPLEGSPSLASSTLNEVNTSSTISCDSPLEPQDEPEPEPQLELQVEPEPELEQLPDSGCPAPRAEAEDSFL
Method: (§3) The test compound dissolved in dimethyl sulfoxide (DMSO) was diluted with a buffer (50 mM Tris-HCl, pH 7.5, 5 mM MgCl2, 5 mM MnCl2, 2 mM dithiothreitol, 0.01% Tween-20). A buffer (10 μl) containing 125 ng/ml PDGFRbeta intracellular domain protein (UPSTATE) and 250 ng/ml biotin-labeled polypeptide biotinyl-poly-Glu:Tyr (4:1) (CIS Bio International) was added to the compound solution (5 μl). At 5 min after mixing a kinase enzyme, the compound and a biotin-labeled polypeptide, a buffer (10 μl) containing 25 μM ATP was added to the obtained mixture, the mixture was allowed to react at 25° C. for 30 min. Then, 25 μl of a stop solution (100 mM EDTA·2 sodium salt, 62.5 mM HEPES buffer (pH 7.4), 250 mM NaCl, 0.1% bovine serum albumin, 10 μg/ml Streptavidin Donor beads: PerkinElmer for alpha screen assay, 10 μg/ml Anti-phosphotyrosine (P-Tyr-66) Acceptor beads: PerkinElmer for alpha screen assay) was added to quench the reaction. The reaction solution was stood at 25° C. for 16 hr, and the count was measured using a plate reader·Fusion™ (manufactured by PerkinElmer). The kinase inhibitory rate (%) of the test compound was calculated by the following formula.
as §1, §2

[3] = biological target: T3, TIE2 Receptor Kinase (TIE2) (Homo sapiens, UniProt Q02763); assay: Determination of TIE2 receptor kinase (TIE2) inhibitory activity (alpha screen); conditions: TIE2 intracellular domain protein, 5 μM ATP buffer; read-out: IC50 value (TIE2 kinase inhibition)
T3 construct: TIE2 intracellular domain protein (UPSTATE); purchased UPSTATE
T3 sequence (Q02763 770-1124 limits assumed): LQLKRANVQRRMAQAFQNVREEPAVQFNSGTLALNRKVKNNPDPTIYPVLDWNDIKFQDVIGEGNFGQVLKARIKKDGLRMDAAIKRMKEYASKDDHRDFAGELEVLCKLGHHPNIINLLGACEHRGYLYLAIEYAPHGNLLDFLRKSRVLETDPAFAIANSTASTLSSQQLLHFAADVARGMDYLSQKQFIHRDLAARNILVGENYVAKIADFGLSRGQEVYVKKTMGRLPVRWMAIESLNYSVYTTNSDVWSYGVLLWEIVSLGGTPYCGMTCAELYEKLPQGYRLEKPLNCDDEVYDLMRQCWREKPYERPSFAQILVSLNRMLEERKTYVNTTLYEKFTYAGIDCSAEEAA
Method: as §3, with “containing 50” for “containing 125”, “ng/ml TIE2” for “ng/ml PDGFRbeta”, “containing 5” for “containing 25”, “for 10” for “for 30”
as §1, §2
Prism (Graphpad Software) according to the nonlinear-regression sigmoidal dose-response (variable slope) analysis method.

IC50 [1] [nM] | IC50 [2] [nM] | IC50 [3] [nM] | SMILES
≤ 500 | ≤ 500 | ≤ 5 | Cn1ccc2ncnc(Oc3ccc(NC(=O)Nc4cccc(C(F)(F)F)c4)c(Cl)c3)c21 [Example 15, N-{2-chloro-4-[(5-methyl-5H-pyrrolo[3,2-d]pyrimidin-4-yl)oxy]phenyl}-N′-[3-(trifluoromethyl)phenyl]urea]
≤ 500 | ≤ 500 | ≤ 5 | Cn1ccc2ncnc(Oc3ccc(NC(=O)Nc4cccc(OC(F)(F)F)c4)c(Cl)c3)c21 [Example 20, N-{2-chloro-4-[(5-methyl-5H-pyrrolo[3,2-d]pyrimidin-4-yl)oxy]phenyl}-N′-[3-(trifluoromethoxy)phenyl]urea]
≤ 500 | ≤ 500 | ≤ 5 | Cc1cc(Oc2ncnc3ccn(C)c23)ccc1NC(=O)Nc1cccc(C(F)(F)F)c1 [Example 41, N-{2-methyl-4-[(5-methyl-5H-pyrrolo[3,2-d]pyrimidin-4-yl)oxy]phenyl}-N′-[3-(trifluoromethyl)phenyl]urea]
≤ 500 | ≤ 500 | ≤ 5 | CCn1ccc2ncnc(Oc3ccc(NC(=O)Nc4cccc(C(F)(F)F)c4)c(Cl)c3)c21 [Example 47, N-{2-chloro-4-[(5-ethyl-5H-pyrrolo[3,2-d]pyrimidin-4-yl)oxy]phenyl}-N′-[3-(trifluoromethyl)phenyl]urea]
